Test results reported in the supplement of paper PMC8149375.

Experiments:
Details in all cases: treatment: drug + dasatinib (fixed dose, not stated); 5 days
769-P [1] = assay: GI50 of drug in presence of dasatinib; higher = less potent
Method: (§1)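 Primary HTS combination arm: 8 RCC cell lines treated with 8 doses (up to 10 uM) of each library drug plus a fixed dose of dasatinib (dose not stated) for 5 days; viability read by CellTiter-Glo and normalised to DMSO. GI50 was fitted with XLfit, AUC is the area under the dose-response curve, and minimum viability is the lowest fraction of DMSO viability across doses.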

786-O [2] = assay: as above
Method: as §1

A498 [3] = assay: as above
Method: as §1

ACHN [4] = assay: as above
Method: as §1

CAKI-1 [5] = assay: as above
Method: as §1

SN12C [6] = assay: as above
Method: as §1

TK-10 [7] = assay: as above
Method: as §1

UO-31 [8] = assay: as above
Method: as §1

769-P [9] = assay: minimum viability across doses, drug + dasatinib, relative to DMSO (fraction); higher = less growth inhibition
Method: as §1

786-O [10] = assay: as above
Method: as §1

A498 [11] = assay: as above
Method: as §1

ACHN [12] = assay: as above
Method: as §1

CAKI-1 [13] = assay: as above
Method: as §1

SN12C [14] = assay: as above
Method: as §1

TK-10 [15] = assay: as above
Method: as §1

UO-31 [16] = assay: as above
Method: as §1

769-P [17] = assay: AUC of dose-response viability curve, drug + dasatinib, normalised to DMSO (arbitrary (AUC of normalised viability)); higher = less growth inhibition
Method: as §1

786-O [18] = assay: as above
Method: as §1

A498 [19] = assay: as above
Method: as §1

ACHN [20] = assay: as above
Method: as §1

CAKI-1 [21] = assay: as above
Method: as §1

SN12C [22] = assay: as above
Method: as §1

TK-10 [23] = assay: as above
Method: as §1

UO-31 [24] = assay: as above
Method: as §1

Row | SMILES | GI50 of drug (769-P [1]) | GI50 of drug (786-O [2]) | GI50 of drug (A498 [3]) | GI50 of drug (ACHN [4]) | GI50 of drug (CAKI-1 [5]) | GI50 of drug (SN12C [6]) | GI50 of drug (TK-10 [7]) | GI50 of drug (UO-31 [8]) | minimum viability across doses (769-P [9]) | minimum viability across doses (786-O [10]) | minimum viability across doses (A498 [11]) | minimum viability across doses (ACHN [12]) | minimum viability across doses (CAKI-1 [13]) | minimum viability across doses (SN12C [14]) | minimum viability across doses (TK-10 [15]) | minimum viability across doses (UO-31 [16]) | AUC of dose-response viability curve (769-P [17]) | AUC of dose-response viability curve (786-O [18]) | AUC of dose-response viability curve (A498 [19]) | AUC of dose-response viability curve (ACHN [20]) | AUC of dose-response viability curve (CAKI-1 [21]) | AUC of dose-response viability curve (SN12C [22]) | AUC of dose-response viability curve (TK-10 [23]) | AUC of dose-response viability curve (UO-31 [24])
1 | Cn1cnc(-c2cc3nccc(Oc4ccc(NC(=S)NC(=O)Cc5ccccc5)cc4F)c3s2)c1 [MGCD-265] + Cc1nc(Nc2ncc(C(=O)Nc3c(C)cccc3Cl)s2)cc(N2CCN(CCO)CC2)n1 [dasatinib] | > 10 µM | > 10 µM | > 10 µM | 2.83 µM | 3.63 µM | > 10 µM | > 10 µM | 5.72 µM | 0.557 | 0.646 | 0.676 | 0.44 | 0.256 | 0.515 | 0.727 | 0.107 | 2.39 | 2.64 | 3.49 | 2.13 | 2.21 | 2.38 | 2.82 | 3.44
2 | CN(C[C@@H]1COCCO1)S(=O)(=O)Nc1ccc2ccc3ncc(-c4cnn(C)c4)cc3c(=O)c2c1 [MK-2461] + Cc1nc(Nc2ncc(C(=O)Nc3c(C)cccc3Cl)s2)cc(N2CCN(CCO)CC2)n1 [dasatinib] | 6.28 µM | > 10 µM | > 10 µM | 0.0109 µM | 0.45 µM | > 10 µM | 2.91 µM | 5.33 µM | 0.362 | 0.638 | 0.919 | 0.121 | 0.0412 | 0.179 | 0.287 | 0.227 | 2.49 | 4.08 | 4.48 | 1.23 | 1.71 | 2.14 | 2.19 | 5.47
3 | O=C(O)[C@]1(Cc2cccc(Nc3nccs3)n2)CC[C@@H](Oc2cccc(Cl)c2F)CC1 [MK-5108 (VX-689)] + Cc1nc(Nc2ncc(C(=O)Nc3c(C)cccc3Cl)s2)cc(N2CCN(CCO)CC2)n1 [dasatinib] | 1.36 µM | 0.105 µM | 1.99 µM | 0.0401 µM | 0.355 µM | 0.944 µM | 1.48 µM | 4.08 µM | 0.202 | 0.00534 | 0.339 | 0.227 | 0.216 | 0.174 | 0.372 | 0.37 | 2.18 | 1.07 | 2.89 | 1.51 | 1.86 | 1.96 | 2.14 | 3.91
4 | O=C(O)c1ccc(Nc2ncc3c(n2)-c2ccc(Cl)cc2C(c2c(F)cccc2F)=NC3)cc1 [MLN8054] + Cc1nc(Nc2ncc(C(=O)Nc3c(C)cccc3Cl)s2)cc(N2CCN(CCO)CC2)n1 [dasatinib] | 1.19 µM | 0.641 µM | 4.23 µM | 0.398 µM | 0.641 µM | 3.92 µM | > 10 µM | > 10 µM | 0.306 | 0.157 | 0.354 | 0.219 | 0.277 | 0.425 | 0.585 | 0.645 | 2.14 | 2.01 | 2.68 | 1.77 | 1.93 | 2.22 | 2.58 | 2.92
5 | Cc1ccc(NC(=O)c2ccc(CN3CCN(C)CC3)cc2)cc1Nc1nc(-c2cccnc2)cs1 [Masitinib (AB1010)] + Cc1nc(Nc2ncc(C(=O)Nc3c(C)cccc3Cl)s2)cc(N2CCN(CCO)CC2)n1 [dasatinib] | 4.7 µM | 4.05 µM | > 10 µM | 0.46 µM | 6.75 µM | > 10 µM | > 10 µM | 6.09 µM | 0.377 | 0.204 | 0.622 | 0.263 | 0.438 | 0.484 | 0.57 | 0.271 | 2.3 | 2.55 | 3.05 | 1.96 | 2.28 | 2.51 | 2.71 | 3.05
6 | CC1(C)CNc2cc(NC(=O)c3cccnc3NCc3ccncc3)ccc21.O=P(O)(O)O.O=P(O)(O)O [Motesanib Diphosphate] + Cc1nc(Nc2ncc(C(=O)Nc3c(C)cccc3Cl)s2)cc(N2CCN(CCO)CC2)n1 [dasatinib] | > 10 µM | > 10 µM | > 10 µM | > 10 µM | > 10 µM | > 10 µM | > 10 µM | > 10 µM | 0.599 | 0.714 | 0.877 | 0.512 | 0.542 | 0.711 | 0.724 | 0.944 | 2.34 | 2.74 | 3.26 | 2.3 | 2.39 | 2.56 | 2.87 | 3.93
7 | FC(F)(F)c1ccc(/C=C/c2nc(COc3ccc(CCCCn4ccnn4)cc3)co2)cc1 [Mubritinib (TAK 165)] + Cc1nc(Nc2ncc(C(=O)Nc3c(C)cccc3Cl)s2)cc(N2CCN(CCO)CC2)n1 [dasatinib] | > 10 µM | 0.0238 µM | 0.243 µM | 0.0314 µM | > 10 µM | 0.0416 µM | 0.146 µM | 0.0747 µM | 0.539 | 0.0257 | 0.231 | 0.183 | 0.543 | 0.0505 | 0.168 | 0.124 | 2.32 | 0.96 | 1.99 | 1.26 | 2.17 | 1.09 | 1.56 | 1.66
